For one assay, the system named is melanocortin receptors. The note with it: ref [28]; cited from earlier work.
Another assay deals with hMC4R (Homo sapiens, UniProt P32245). The note with it: saturation binding, Figure 2.
Chain of hMC4R (P32245 whole entry): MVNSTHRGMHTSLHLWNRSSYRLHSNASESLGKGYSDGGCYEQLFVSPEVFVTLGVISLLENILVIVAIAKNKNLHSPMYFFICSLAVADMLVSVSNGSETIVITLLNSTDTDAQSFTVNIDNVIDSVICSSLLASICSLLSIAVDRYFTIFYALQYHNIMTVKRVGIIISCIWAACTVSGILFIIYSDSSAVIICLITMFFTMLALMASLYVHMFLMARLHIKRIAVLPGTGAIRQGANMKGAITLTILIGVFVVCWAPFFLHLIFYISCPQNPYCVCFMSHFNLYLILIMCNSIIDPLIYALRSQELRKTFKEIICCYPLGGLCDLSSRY

Take “Ac-Ser-Tyr-Ser-Nle-Glu-His-DPhe-Arg-Trp-Gly-Lys-Pro-Val-NH2 [NDP-α-MSH]”: the off-rate entry in the assay on melanocortin receptors is “approximately eight”. Regarding `N=C(N)NCCC[C@H](NC(=O)[C@@H](Cc1ccccc1)NC(=O)[C@H](Cc1c[nH]cn1)NC(=O)COCC(=O)NCCCOCCOCCOCCCNC(=O)CN(CCN(CCN(CC(=O)O)CC(=O)O)CC(=O)O)CC(=O)O)C(=O)N[C@@H](Cc1c[nH]c2ccccc12)C(N)=O` [Probe 2, Eu-DTPA-PEGO-MSH(4)], on hMC4R, the “non-specific binding relative to probes 3 and 4” value worked out at 20%.
